{"source": "patent EP4076478B1", "about": "“COMPOSITION AND METHOD FOR THE TREATMENT OF TYPE I DIABETES” (Vector Vitale IP LLC, priority 2019, dated 2021)", "experiment": "Accumulation of metals in liver and kidney tissues after intraperitoneal administration", "assay_type": "in vivo, rats", "settings": "day 1 and day 7 after discontinuation of the substances", "data": [{"smiles": "CC(=O)[O-].CC(=O)[O-].[Zn+2]", "note": "[Zn acetate, Zn(CH3COO)2]", "values": [{"measurement": "zinc in the kidney and liver tissues", "result": "significantly increased"}]}]}
